Source: ChEMBL document CHEMBL1125158, “A model for compounds active against human rhinovirus-14 based on X-ray crystallography data” (1990)
Values after ≈ are worked out from the molar mass of the structure shown. Active and inactive are the calls of the source. No cut-off for these calls is given here.

What was measured:
rhinovirus B14 [1] = experiment: In vitro minimum inhibitory concentration for the inhibition of human rhinovirus-14 (HRV-14) replication by binding to viral capsid; NA= inactive at the 10 umol.; assay type: functional, organism-based
rhinovirus B14 [2] = experiment: In vitro minimum inhibitory concentration for the inhibition of human rhinovirus-14 replication.; assay type: functional
rhinovirus B14 [3] = experiment: In vitro inhibitory activity against human rhinovirus-14 was determined; assay type: functional; conditions: Rhinovirus B

Structure (SMILES) | MIC (rhinovirus B14 [2]; Rhinovirus B) [µM] | further results
Cc1cc(CCCCCOc2c(C)cc(-c3ccoc3)cc2C)on1 |  | MIC (rhinovirus B14 [1]): inactive
Cc1cc(CCCCCCOc2ccc(C3=NCCO3)cc2)on1 | 2.9 (≈ 0.952 µg/mL) | 
Cc1cc(CCCCOc2ccc(C3=NCCO3)cc2Cl)on1 | 9.2 (≈ 3.08 µg/mL) | 
Cc1cc(CCCCCCCCOc2ccc(C3=NCCO3)cc2)on1 | 3.92 (≈ 1.4 µg/mL) | 
Cc1cc(CCCCCCCOc2ccc(C3=NC(C)CO3)cc2)on1 (centres undefined) | 0.05 (≈ 0.0178 µg/mL) | 
Cc1cc(CCCCCCCOc2ccc(C3=NC(C)CO3)cc2Cl)on1 (centres undefined) | 2.4 (≈ 0.938 µg/mL) | 
CCc1cc(C2=NCCO2)cc(C)c1OCCCCCc1cc(C)no1 |  | MIC (rhinovirus B14 [1]): inactive
Cc1cc(CCCCCCCOc2ccc(C3=NCCO3)cc2)on1 [DISOXARIL] | 0.41 (≈ 0.14 µg/mL) | 
Cc1cc(CCCCCCCOc2ccc(C3=NCCO3)cc2Cl)on1 | 1.06 (≈ 0.399 µg/mL) | 
Cc1cc(CCCCCCCCOc2ccc(C3=NCCO3)cc2Cl)on1 | 14.3 (≈ 5.6 µg/mL) | 
CCc1cc(CCCCCOc2ccc(C3=NCCO3)cc2)on1 | 0.43 (≈ 0.141 µg/mL) | 
CC[C@H]1COC(c2ccc(OCCCCCCCc3cc(C)no3)cc2)=N1 | 0.023 (≈ 0.00852 µg/mL) | 
Cc1cc(CCCCCOc2c(Cl)cc(-c3ccoc3)cc2Cl)on1 |  | MIC (rhinovirus B14 [1]): inactive
OCCOCOCc1cc(CCCCCCCOc2c(Cl)cc(C3=NCCO3)cc2Cl)on1 | 0.06 (≈ 0.0301 µg/mL) | 
CCCc1cc(CCCCCOc2ccc(C3=NCCO3)cc2)on1 | 0.16 (≈ 0.0548 µg/mL) | 
Cc1cc(CCCCCOc2ccc(C3=NCCO3)cc2Cl)on1 | 2.41 (≈ 0.841 µg/mL) | 
Cc1cc(CCCCCOc2c(Cl)cc(-c3cnco3)cc2Cl)on1 |  | MIC (rhinovirus B14 [1]): inactive
Cc1cc(CCCCCOc2ccc(-c3nc(C)c(C)s3)cc2)on1 | 0.14 (≈ 0.0499 µg/mL) | 
Cc1cc(CCCCCOc2c(C)cc(-c3ccco3)cc2C)on1 |  | MIC (rhinovirus B14 [1]): inactive
Cc1cc(CCCCCCCOc2ccc(C3=NC(C)(C)CO3)cc2)on1 | 0.16 (≈ 0.0593 µg/mL) | 
Cc1cc(CCCCCOc2c(Cl)cc(C3=NCCO3)cc2C(C)(C)C)on1 |  | MIC (rhinovirus B14 [1]): inactive
Cc1cc(CCCCCCOc2ccc(C3=NCCO3)cc2Cl)on1 | 3.86 (≈ 1.4 µg/mL) | 
Cc1cc(CCCCCOc2ccc(C3=NCCO3)cc2)on1 | 0.51 (≈ 0.16 µg/mL) | MIC (rhinovirus B14 [3]): 1.27 µM (≈ 0.399 µg/mL)
Cc1cc(CCCCCOc2ccc(C3=NCCO3)cc2N(C)C)on1 |  | MIC (rhinovirus B14 [1]): inactive
Cc1cc(CCCCCCCOc2ccc(C3=NC(CO)CO3)cc2)on1 (centres undefined) | 0.16 (≈ 0.0596 µg/mL) | 
Cc1cc(CCCCOc2ccc(C3=NCCO3)cc2)on1 |  | MIC (rhinovirus B14 [2]): inactive
CCCCc1cc(CCCCCOc2ccc(C3=NCCO3)cc2)on1 | 0.56 (≈ 0.2 µg/mL) | 
Cc1cc(CCCCCOc2ccc(C3=NC(C)CO3)cc2)on1 (centres undefined) | 0.7 (≈ 0.23 µg/mL) | 
